In one data set the test system is 4T1 murine breast cancer. Description: 4T1 orthotopic breast cancer efficacy study. The format is in vivo. The conditions noted are these: 4T1 in Balb/c mice; CBI prodrugs 3 mg/kg. An excerpt: (§1) We then moved to in vivo anticancer efficacy trials of these prodrugs. […] As one model we chose the syngeneic murine breast cancer 4T1, implanted orthotopically (at the native tissue site) into the fat pad of immunocompetent Balb/c mice (i.e., offering a realistic immune system and tumor microenvironment). This model gives rapid, aggressive tumor growth.[52] As a second model, we chose to xenograft human BxPC-3 pancreatic adenocarcinoma cells into immunodeficient hosts. This is a slower-growing model, with low metastasis, that can be more resistant to traditional antimitotic therapy.[53],[54] Mice were implanted, randomized once tumors reached 100–150 mm^3 volume, and treated once or twice weekly with prodrug or control compounds typically at 3 mg/kg (8–12 animals per condition, Figure 10a). Tumors were measured by caliper during the assay and weighed at termination.
7. 2. in vivo efficacy mouse studies
4T1 efficacy study BxPC-3 efficacy study a Absolute tumour volumes b Absolute tumour volumes […]
days after tumor implantation days after tumor implantation c Relative tumour volumes d Relative tumour volumes […]
e RTV! fi"al day of followu# f ex viv tumour weights g RTV! fi"al day of followu# h ex viv tumour weights (. mice remain in all *roups) (for animals left at day 31)(all *roups have statistical power)(day "2/ all animals left) […]
vehicle(1x)(1x)(1x) (2x)(2x) […]
P-##"0-#$%-&'%P-!!"0-#$%-&'%P-!!"0-#$%-()%P-!!"0-#$%-&'% %rinotecan %rinotecan P-##"0-#$%-&'%P-!!"0-#$%-()%P-!!"0-#$%-&'%P-!!"0-#$%-&'% P-!!"0-#$%-&'% P-!!"0-#$%-&'% […]
i Body weights $ Body weights […]
implant in Balb/c mice, 8 mice per group; (b, d,g,h,j): BxPC-3 subcutaneous xenograft in NMRi mice, 8 mice per […]
treatment (m e d ia n); (e,g) in vivo caliper measurement of relative tum or volumes at final day of followup [last day when all mice in all groups remain in the study] […]
tumor weights at termination of study (only mice not terminated on ethical grounds before the indicated days were harvested); (i,j) Bodyweights (means).
(BxPC-3 study); dotted vertical lines indicate days of [potential] treatment.

The next data set concerns Balb/c mice. Description: Moderate repeated dosing tolerability study. The format is in vivo. The conditions noted are these: once weekly.
In data set [1] the test system is human BxPC-3 pancreatic adenocarcinoma. Description: BxPC-3 xenograft efficacy study. It is filed as in vivo, athymic nu/nu NMRI mice.
Excerpt: as §1
Finally, we tested P-SS60-CBI-TMI in the slower-growing pancreatic cancer model BxPC-3 in athymic NMRI mice (8 animals per group). […]

Method for Balb/c mice: Next, a moderate repeated dosing study in Balb/c mice (3 animals per group) tested the importance of solubilizing the prodrugs.
Methods for in vivo animal studies
All in vivo studies were conducted as contract research together with React ionBiology Eur ope G mbH (Freiburg,
Germany), EPO – Experimental Pharmacology & Oncology GmbH (Berlin, Germany); Bient a/ Enam ine Lt d. (Kyiv,
Ukraine) and Leit at – Managing Technologies (Barcelona, Spain), adhering to the respective animal welfare
Mice were kept in individually ventilated cages at constant temperature (22±2 °C, air-conditioned) and humidity (45
– 65%), under optimum hygienic conditions with 10 – 15 air changes per hour. A cycle of 12 h artificial fluorescent
light ning and 12 h darkness was applied , and animal behavior was monitored daily throughout the studies. The
animals received food and water ad libit um.
To evaluate toxicity of selected compounds, dose level selection studies within dose range from 0.1 mg/kg to
10 mg/kg were performed by intravenous administration into Balb /c mice. Each dose for each tested compound
was administered in one mouse.
changes and clinical signs of gross toxicity three tim es per week for 21 consecutive days of post-dosing period.
After the first week of observation without adverse events, two doses for each test compound were selected as
tolerated. These two doses were tested in two additional mice for confirmation of toler ability. Additional animals
consecutive days of post-dosing period. Toxicity of repeated administrations was tested wit h t hr ee repeat ed pr e-
selected doses at a dosing interval of 7 days. Mortality, body weight changes, and clinical signs of gross toxicity
were monitored after each drug administration and three times per week for 21 consecutive days after the first
compound administration. Bleed ing with subsequent hematological tests, clinical chemistry parameters analysis
(ALT, AST, ALP, LDH, creatine kinase, creatinine, urea, cholesterol, and triglycerides), and necropsy with
macroscopic inspection were performed on the terminal day of the repeated dosing-regime.
To test tolerability of selected compounds in vivo, female BALB/c mice were randomized by weight into seven
groups of t hree animals.

For `COc1cc2cc(C(=O)N3C[C@@H](CCl)c4c3cc(OC(=O)N(CCC(=O)N3CCN(C)CC3)C3CCCCC3)c3ccccc43)[nH]c2c(OC)c1OC` [P-CC60-CBI-TMI], in the data set on 4T1 murine breast cancer, the “effect on tumor growth” value is “delayed tumor growth in the first week of treatment”.

As for `COc1cc2cc(C(=O)N3C[C@@H](CCl)c4c3cc(OC(=O)N(CCC(=O)N3CCN(C)CC3)[C@H]3CCSSC3)c3ccccc43)[nH]c2c(OC)c1OC` [P-SS60-CBI-TMI], the “effect on tumor growth” value in the data set with 4T1 murine breast cancer is listed as “maintained statistically significant tumor suppression until study termination”. Besides, the “outcome of repeated dosing at 3 mg/kg” value with Balb/c mice is “tolerated”. Besides, in data set [1] (BxPC-3, 3 mg/kg vs irinotecan 10 mg/kg), the “tumor suppression vs irinotecan” value is “almost identical tumor suppression”. Moreover, the “tumor growth rate suppression” value in data set [1] (BxPC-3, once-weekly 3 mg/kg, over 4 weeks) was “ca. 70%”.

Source of the values: paper PMC10141580, “Cyclic Dichalcogenides Extend the Reach of Bioreductive Prodrugs to Harness Thiol/Disulfide Oxidoreductases: Applications to seco-Duocarmycins Targeting the Thioredoxin System” (ACS Central Science, 2023).
